Consider 28 molecules from ChEMBL document CHEMBL2034876, “Diversity-Oriented Synthesis Yields a Novel Lead for the Treatment of Malaria” (ACS Med Chem Lett, 2012).

What is called GI50 is the concentration that inhibits growth by half. A higher GI50 goes with lower sensitivity of the cells. In general, solubility refers to the dissolved amount per volume that the medium holds. The low end stands for a poorly soluble substance, the high end for a readily soluble substance.

Converted amounts (≈) assume the structure as drawn.

The test system of the first data set is Plasmodium falciparum. Kind of data set: Antimalarial activity against asexual blood stage form of Plasmodium falciparum Dd2 infected in human erythrocytes after 72 hrs by DAPI staining. The following applies: Dd2, 72 h. It counts as functional.
Regarding `C[C@@H]1CN([C@@H](C)CO)C(=O)c2cc(NS(=O)(=O)c3ccccc3)ccc2O[C@@H](C)CCCCO[C@H]1CN(C)S(=O)(=O)c1ccc(F)cc1`, it took 2400 nM to inhibit growth by half (GI50).

`C[C@@H]1CN([C@@H](C)COC(=O)C(C)(C)C)C(=O)c2cc(NC(=O)Nc3ccccc3)ccc2O[C@@H](C)CCCCO[C@H]1CN(C)S(=O)(=O)c1ccc(F)cc1` had a GI50 of 7.3 nM.

The molecule `C[C@@H]1CN([C@@H](C)CO)C(=O)c2cc(N(C)C)ccc2O[C@@H](C)CCCCO[C@H]1CN(C)S(=O)(=O)c1ccc(F)cc1` registered a GI50 above 5000 nM.

With `COCCOC(=O)N(C)C[C@@H]1OCCCC[C@H](C)Oc2ccc(NC(=O)Nc3ccccc3)cc2C(=O)N([C@@H](C)CO)C[C@H]1C`, the GI50 was above 5000 nM.

In turn, `C[C@@H]1CN([C@@H](C)CN)C(=O)c2cc(NC(=O)Nc3ccccc3)ccc2O[C@@H](C)CCCCO[C@H]1CN(C)S(=O)(=O)c1ccc(F)cc1` displayed a GI50 of 370 nM. In other words, the sub-micromolar range.

Molecule `COc1ccc(COC[C@@H](C)N2C[C@@H](C)[C@H](CN(C)S(=O)(=O)c3ccc(F)cc3)OCCCC[C@H](C)Oc3ccc(NC(=O)Nc4ccccc4)cc3C2=O)cc1` gave a GI50 of 36 nM.

The molecule `C[C@@H]1CN([C@@H](C)CO)C(=O)c2cc(NC(=O)Nc3ccccc3)ccc2O[C@@H](C)CCCCO[C@H]1CN(C)S(=O)(=O)c1cccnc1` returned a GI50 above 5000 nM.

`C[C@@H]1CN([C@@H](C)CO)C(=O)c2cc(Nc3nc4ccccc4o3)ccc2O[C@@H](C)CCCCO[C@H]1CN(C)S(=O)(=O)c1ccc(F)cc1` had a GI50 of 580 nM.

As for `C[C@@H]1CN([C@@H](C)CO)C(=O)c2cc(NC(=O)Nc3ccccc3)ccc2O[C@@H](C)CCCCO[C@H]1CN(C)S(=O)(=O)c1ccccc1F`, halving of growth (GI50) required 1100 nM.

`C[C@@H]1CN([C@@H](C)CO)C(=O)c2cc(NC(=O)Nc3ccccc3)ccc2O[C@@H](C)CCCCO[C@H]1CN(C)S(=O)(=O)c1ccccc1` displayed a GI50 of 350 nM.

On to `CNC[C@H](C)N1C[C@@H](C)[C@H](CN(C)S(=O)(=O)c2ccc(F)cc2)OCCCC[C@H](C)Oc2ccc(NC(=O)Nc3ccccc3)cc2C1=O`, for which the GI50 came out at 79 nM.

`CC(C)NC(=O)Nc1ccc2c(c1)C(=O)N([C@@H](C)CO)C[C@@H](C)[C@H](CN(C)S(=O)(=O)c1ccc(F)cc1)OCCCC[C@H](C)O2` yielded a GI50 of 400 nM.

Regarding `C[C@@H]1CN([C@@H](C)CO)C(=O)c2cc(NC(=O)Nc3ccccc3)ccc2O[C@@H](C)CCCCO[C@H]1CN(C)Cc1ccccc1`, the GI50 was found to be 1100 nM.

Molecule `C[C@@H]1CN([C@@H](C)CO)C(=O)c2cc(NC(=O)Nc3ccccc3)ccc2O[C@@H](C)CCCCO[C@H]1CN(C)C(=O)c1ccccc1` had a GI50 of 2600 nM.

Regarding `C[C@@H]1CN([C@@H](C)CO)C(=O)c2cc(NC(=O)Nc3ccccc3)ccc2O[C@@H](C)CCCCO[C@H]1CN(C)S(=O)(=O)c1ccc(C(F)(F)F)cc1`, the GI50 worked out at 877 nM.

For `C[C@@H]1CN([C@@H](C)CO)C(=O)c2cc(NC(=O)Nc3ccccc3)ccc2O[C@@H](C)CCCCO[C@H]1CN(C)C(=O)OC(C)(C)C`, the GI50 was found to be 1400 nM.

Take `C[C@@H]1CN([C@@H](C)CO)C(=O)c2cc(N)ccc2O[C@@H](C)CCCCO[C@H]1CN(C)S(=O)(=O)c1ccc(F)cc1`: growth was halved (GI50) at 990 nM.

For `COc1ccc(COCCN2C[C@@H](C)[C@H](CN(C)S(=O)(=O)c3ccc(F)cc3)OCCCC[C@H](C)Oc3ccc(NC(=O)Nc4ccccc4)cc3C2=O)cc1`, the GI50 was 55 nM.

In turn, `Cc1noc(C)c1NC(=O)Nc1ccc2c(c1)C(=O)N([C@@H](C)CO)C[C@@H](C)[C@H](CN(C)S(=O)(=O)c1ccc(F)cc1)OCCCC[C@H](C)O2` displayed a GI50 of 240 nM.

As for `COc1ccc(COC[C@H](C)N2C[C@@H](C)[C@H](CN(C)S(=O)(=O)c3ccc(F)cc3)OCCCC[C@H](C)Oc3ccc(NC(=O)Nc4ccccc4)cc3C2=O)cc1`, growth was halved (GI50) at 0.18 nM.

In turn, `COc1ccc(S(=O)(=O)N(C)C[C@@H]2OCCCC[C@H](C)Oc3ccc(NC(=O)Nc4ccccc4)cc3C(=O)N([C@@H](C)CO)C[C@H]2C)cc1` displayed a GI50 of 160 nM. This GI50 is about 890-fold higher than that of the molecule before.

For `C[C@@H]1CN([C@@H](C)CO)C(=O)c2cc(NC(=O)Nc3ccccc3)ccc2O[C@@H](C)CCCCO[C@H]1CN(C)Cc1ccc(F)cc1`, the GI50 was determined as 4300 nM.

`C[C@@H]1CN([C@@H](C)COC(=O)c2ccccc2)C(=O)c2cc(NC(=O)Nc3ccccc3)ccc2O[C@@H](C)CCCCO[C@H]1CN(C)S(=O)(=O)c1ccc(F)cc1` returned a GI50 of 15 nM. This GI50 is about 290-fold lower than that of the molecule before.

In turn, `C[C@@H]1CN([C@@H](C)CO)C(=O)c2cc(NC(=O)Nc3ccccc3)ccc2O[C@@H](C)CCCCO[C@H]1CN(C)C(=O)Oc1ccccc1` showed a GI50 above 5000 nM.

In the case of `COCOC[C@H](C)N1C[C@@H](C)[C@H](CN(C)S(=O)(=O)c2ccc(F)cc2)OCCCC[C@H](C)Oc2ccc(NC(=O)Nc3ccccc3)cc2C1=O`, the GI50 worked out at 8.2 nM.

In turn, `C[C@@H]1CN([C@@H](C)CN=[N+]=[N-])C(=O)c2cc(NC(=O)Nc3ccccc3)ccc2O[C@@H](C)CCCCO[C@H]1CN(C)S(=O)(=O)c1ccc(F)cc1` showed a GI50 of 3.2 nM.

In turn, `C[C@@H]1CN(CCO)C(=O)c2cc(NC(=O)Nc3ccccc3)ccc2O[C@@H](C)CCCCO[C@H]1CN(C)S(=O)(=O)c1ccc(F)cc1` yielded a GI50 of 640 nM. This GI50 lies about 200-fold higher than the previous one.

Test system in the next data set: not listed separately
Kind of data set: Aqueous solubility of the compound. It counts as physicochemical. To be noted: water.
In turn, `C[C@@H]1CN([C@@H](C)COC(=O)C(C)(C)C)C(=O)c2cc(NC(=O)Nc3ccccc3)ccc2O[C@@H](C)CCCCO[C@H]1CN(C)S(=O)(=O)c1ccc(F)cc1` registered a solubility below 0.5 µM.

Consider `C[C@@H]1CN([C@@H](C)CO)C(=O)c2cc(NC(=O)Nc3ccccc3)ccc2O[C@@H](C)CCCCO[C@H]1CN(C)C(=O)Oc1ccccc1`, for which the solubility came out at 1.2 µM (≈ 0.776 µg/mL).

The target of the next data set is T1, Dihydroorotate dehydrogenase (Plasmodium falciparum) (UniProt Q54A96).
T1 sequence (whole entry): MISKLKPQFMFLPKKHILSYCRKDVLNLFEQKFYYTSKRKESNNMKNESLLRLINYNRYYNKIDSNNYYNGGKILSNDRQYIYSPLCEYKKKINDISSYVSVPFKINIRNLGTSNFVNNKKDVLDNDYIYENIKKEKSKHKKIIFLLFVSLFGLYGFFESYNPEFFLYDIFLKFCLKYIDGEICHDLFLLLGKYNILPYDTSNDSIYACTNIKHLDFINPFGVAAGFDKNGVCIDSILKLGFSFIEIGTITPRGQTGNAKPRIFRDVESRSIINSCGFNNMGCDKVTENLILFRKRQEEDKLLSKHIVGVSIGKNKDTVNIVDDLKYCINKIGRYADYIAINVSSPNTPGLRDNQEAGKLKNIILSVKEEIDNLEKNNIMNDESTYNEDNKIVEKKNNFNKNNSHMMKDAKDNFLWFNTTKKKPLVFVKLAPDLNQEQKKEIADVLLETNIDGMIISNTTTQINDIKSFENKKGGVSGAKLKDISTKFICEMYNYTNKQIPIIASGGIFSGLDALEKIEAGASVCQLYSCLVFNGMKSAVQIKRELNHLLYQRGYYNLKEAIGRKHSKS
Kind of data set: Inhibition of Plasmodium falciparum DHODH-mediated 2,6-dichloroindophenol reduction after 20 mins by spectrophotometry.
Settings: not given
For the molecule `C[C@@H]1CN([C@@H](C)CN(C)C)C(=O)c2cc(NC(=O)Nc3ccccc3)ccc2O[C@@H](C)CCCCO[C@H]1CN(C)S(=O)(=O)c1ccc(F)cc1`, the INH is above 30 µM.

The next data set deals with Plasmodium berghei. Briefly: Inhibition of Plasmodium berghei DHODH-mediated 2,6-dichloroindophenol reduction after 20 mins by spectrophotometry.
Settings: not given
`C[C@@H]1CN([C@@H](C)CN(C)C)C(=O)c2cc(NC(=O)Nc3ccccc3)ccc2O[C@@H](C)CCCCO[C@H]1CN(C)S(=O)(=O)c1ccc(F)cc1` registered an INH above 30 µM.

The subject of the next data set is Plasmodium vivax. Kind of data set: Inhibition of Plasmodium vivax DHODH-mediated 2,6-dichloroindophenol reduction after 20 mins by spectrophotometry.
Settings: not given
As for `C[C@@H]1CN([C@@H](C)CN(C)C)C(=O)c2cc(NC(=O)Nc3ccccc3)ccc2O[C@@H](C)CCCCO[C@H]1CN(C)S(=O)(=O)c1ccc(F)cc1`, the INH is above 30 µM.

The target of a further data set is Dihydroorotate dehydrogenase (quinone), mitochondrial (Homo sapiens) (UniProt Q02127). Kind of data set: Inhibition of human DHODH-mediated 2,6-dichloroindophenol reduction after 20 mins by spectrophotometry.
Sequence of Dihydroorotate dehydrogenase (quinone), mitochondrial (Homo sapiens) (Q02127 whole entry): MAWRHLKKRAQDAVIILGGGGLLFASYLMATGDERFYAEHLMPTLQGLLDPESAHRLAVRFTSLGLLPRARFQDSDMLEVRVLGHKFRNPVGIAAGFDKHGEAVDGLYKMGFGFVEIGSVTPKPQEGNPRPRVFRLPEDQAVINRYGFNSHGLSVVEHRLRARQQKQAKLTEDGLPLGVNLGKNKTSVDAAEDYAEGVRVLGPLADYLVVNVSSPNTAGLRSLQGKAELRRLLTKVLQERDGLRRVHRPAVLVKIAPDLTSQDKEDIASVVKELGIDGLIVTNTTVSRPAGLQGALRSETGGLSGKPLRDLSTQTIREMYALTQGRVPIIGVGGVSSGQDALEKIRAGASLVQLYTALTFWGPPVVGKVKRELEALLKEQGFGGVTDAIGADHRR
Settings: not given
With `C[C@@H]1CN([C@@H](C)CN(C)C)C(=O)c2cc(NC(=O)Nc3ccccc3)ccc2O[C@@H](C)CCCCO[C@H]1CN(C)S(=O)(=O)c1ccc(F)cc1`, the INH was above 30 µM.
